# Measured values published in US20190110476A1, “NOVEL ISOTHIAZOLAMIDES, PROCESSES FOR THEIR PREPARATION AND THEIR USE AS FUNGICIDES” (priority 2014, published 2019).
# Marks after values point to notes of the source that are not given here.
# Test: Measurement of LogP values by HPLC on reversed phase columns (EEC directive 79/831 Annex V.A8)
# Type: physicochemical
# Details: not given
# In short: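 LogP measured by reversed-phase HPLC following EEC directive 79/831 Annex V.A8. Lambda-max taken from UV spectra at 200–400 nm at chromatographic peak maxima; diastereoisomer values listed separately.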
SMILES,LogP,LogP [a],LogP [b]
O=C(c1cc(N(Cc2ccccc2)Cc2ccccc2)ns1)N(Cc1cc(F)ccc1F)C1CC1 [I-991],5.25[a],,
COc1ccc(CNc2nsc(C(=O)N3CCCc4ccc(C(F)(F)F)cc43)c2Cl)cc1 [II-062],,4.37,4.25
Cc1cccc(C)c1NC(=O)c1snc(N)c1Cl [I-924],2.05[a],,
CC(=O)N(C(C)=O)c1nsc(C(=O)N(C(C)C)C(C)C)c1Cl [I-975],2.77[a],,
COc1ccc(CNc2nsc(C(=O)NCC3CCC(C)CC3)c2Cl)cc1 (stereo not shown) [I-675],4.56[a],,
COc1ccc(CNc2nsc(C(=O)NCc3cnc(Cl)cn3)c2Cl)cc1 [I-1309],2.98[a],,
Nc1nsc(C(=O)NCc2ccc(Cl)cc2Cl)c1Cl [I-018],2.62[a],,
Nc1nsc(C(=O)NCC2(F)CCC2)c1Cl [I-827],1.50[a],,
Cc1ccc(S(C)=Nc2nsc(C(=O)NCc3cc(F)c(F)cc3F)c2F)cc1 (stereo not shown) [II-073],,2.87^[a],
COc1ccc(CNc2nsc(C(=O)N(Cc3ccc(F)cc3F)C(=O)c3ccc(C(F)(F)F)cc3)c2Cl)cc1 [I-1556],5.14[a],,
COc1ccc(CNc2nsc(C(=O)N3CCc4c(Cl)cccc4C3)c2Cl)cc1 [II-098],,4.20^[a],
O=C(O)c1snc(N(Cc2ccccc2)Cc2ccccc2)c1Cl [E-VIII-005],,3.75^[a],
COc1ccc(CNc2nsc(C(=O)NC3C(C(C)C)CCCC3C(C)C)c2Cl)cc1 (stereo not shown) [I-1219],6.32[a],,
Nc1nsc(C(=O)NCC2CCC(F)(F)CC2)c1F [I-1297],1.66[a],,
Nc1nsc(C(=O)NCCC2CCCCC2)c1Cl [I-850],2.92[a],,
CC(C)OC(=O)c1snc(N(C(=O)OC(C)(C)C)C(=O)OC(C)(C)C)c1Cl [E-VII-011],,5.00^[a],
Nc1cc(C(=O)NCc2cccc(F)c2)sn1 [I-304],1.46[a],,
Nc1cc(C(=O)NCc2ccccc2Cl)sn1 [I-282],1.69[a],,
CCC(NC(=O)c1snc(NCc2ccc(OC)cc2)c1Cl)c1ccccc1 (stereo not shown) [I-1265],4.03[a],,
COc1ccc(CNc2nsc(C(=O)NC(C#N)c3cccc(Cl)c3Cl)c2Cl)cc1 (stereo not shown) [I-1335],4.05[a],,
COc1ccc(CNc2nsc(C(=O)NCc3cc(OC)cc(OC)c3)c2Cl)cc1 [I-1328],3.41[a],,
COc1ccc(CNc2nsc(C(=O)NC(C)C3=NOCC3)c2Cl)cc1 (stereo not shown) [I-1337],2.56[a],,
COc1ccc(CNc2nsc(C(=O)NC(C)Cc3ccc(Cl)cc3)c2Cl)cc1 (stereo not shown) [II-023],,4.32^[a],

SMILES,LogP,LogP [a],LogP [b]
COc1ccc(CNc2nsc(C(=O)NCc3ccc(F)c(C)c3)c2Cl)cc1 [I-350],3.89[a],,
COc1ccc(CNc2nsc(C(=O)NCC3COCC3C)c2Cl)cc1 (stereo not shown) [I-1200],2.68[a],,
COc1ccc(CNc2nsc(C(=O)NC(C)c3ccc(Cl)nc3)c2Cl)cc1 (stereo not shown) [I-1343],3.17[a],,
Cc1c(N)nsc1C(=O)NCC1CCCCC1 [I-042],2.01[a],,
COC(=O)Nc1nsc(C(=O)NCc2ccccc2F)c1Cl [I-239],1.98[a],,
COc1ccc(CNc2nsc(C(=O)NCCC3=CCCCC3)c2Cl)cc1 [I-1266],4.44[a],,
COc1ccc(CNc2nsc(C(=O)NCc3csc4ccc(Cl)cc34)c2Cl)cc1 [I-1340],4.37[a],,
CCCS(CC)=Nc1nsc(C(=O)NCc2ccc(F)cc2F)c1F (stereo not shown) [II-094],,1.77^[a],
COc1ccc(CNc2nsc(C(=O)NC3CCC(C4CCCCC4)CC3)c2Cl)cc1 (stereo not shown) [I-1347],6.25[a],,
O=C(NCC1CCCCC1)c1snc(NCCCO)c1Cl [I-676],2.46[a],,
Nc1nsc(C(=O)NCc2cccc(Cl)c2Cl)c1Cl [I-019],2.49[a],,
Nc1nsc(C(=O)NCC2CCC(C(F)(F)F)CC2)c1Br (stereo not shown) [I-840],2.68[a],,
Nc1nsc(C(=O)NCc2ccnc(F)c2)c1Cl [I-038],1.04[a],,
O=C(NC1CCc2ccccc21)c1snc(Cl)c1Cl (stereo not shown) [E-II-020],,3.70,3.63
Nc1nsc(C(=O)NCC2(O)CCCCC2)c1Cl [I-138],1.51[a],,
CC1CCCC(NC(=O)c2snc(N)c2Cl)C1 (stereo not shown) [I-1563],2.37[a],,
Nc1nsc(C(=S)NCC2CCCCC2)c1Cl [I-913],3.37[a],,
C[C@H]1CCCC[C@H]1CNC(=O)c1snc(N)c1I (relative stereo) [I-1540],2.73[a],,
COc1ccc(CNc2nsc(C(=O)NOc3ccccc3)c2Cl)cc1 [I-1031],3.17[a],,
COc1ccc(CNc2nsc(C(=O)NCc3ccc(F)c(OC)c3F)c2Cl)cc1 [I-426],3.69[a],,
Cc1c(N)nsc1C(=O)NCc1ccc(F)cc1F [I-041],1.64[a],,
Nc1cc(C(=O)N(Cc2cc(Cl)ccc2F)C2CC2)sn1 [I-999],2.49[a],,
O=C(NC1CCCCC1)c1snc(N=C(c2ccccc2)c2ccccc2)c1Cl [II-001],,5.13^[a],

SMILES,LogP,LogP [a],LogP [b]
O=C(NCc1c(F)cc(F)cc1F)c1snc(N=S2CCCC2)c1F [II-081],,1.39^[a],
Nc1nsc(C(=O)NCc2ccc(Oc3ccc(F)cc3)cc2)c1Cl [I-238],3.00[a],,
COc1ccc(CNc2nsc(C(=O)N[C@H](C)C3CCCCC3)c2Cl)cc1 [I-070],4.56[a],,
Cc1c(CNC(=O)c2snc(N)c2Cl)ccc(F)c1F [I-163],2.23[a],,
C[C@H](NC(=O)c1snc(N=CN(C)C)c1Cl)C1CCCCC1 [II-025],,3.13^[a],
CC1(CNC(=O)c2snc(N)c2Cl)CCCCC1 [I-086],2.84[a],,
CC1CCCC(C)(C)C1CNC(=O)c1snc(N)c1Cl (stereo not shown) [I-083],3.54[a],,
O=C(NCC1CCOCC1)c1snc(N=C(c2ccccc2)c2ccccc2)c1Cl [II-006],,3.60^[a],
C[C@H](NC(=S)c1snc(NC2CC2)c1Cl)C1CCCCC1 [I-428],4.84[a],,
Nc1nsc(C(=O)NCC2CCCC(C(F)(F)F)C2)c1Cl (stereo not shown) [I-139],2.66[a],,
CC1(C)CCCCC1CNC(=O)c1snc(N)c1Cl (stereo not shown) [I-080],3.05[a],,
Nc1cc(C(=O)NCc2ccccc2)sn1 [I-008],1.32[a],,
Nc1nsc(C(=O)NCC2(F)CCCCC2)c1Cl [I-615],2.17[a],,
Nc1nsc(C(=O)NCc2c(F)cccc2Cl)c1Cl [I-132],2.06[a],,
CC1(C)CC1N(Cc1ccc(Cl)cc1Cl)C(=O)c1snc(N)c1Cl (stereo not shown) [I-214],4.12[a],,
Nc1nsc(C(=O)NCC2CC2)c1Cl [I-337],1.30[a],,
CS(C)=Nc1nsc(C(=O)NCC2CCCCC2)c1Cl [II-032],,1.82^[a],
C[C@H]1CCCC[C@H]1CNC(=O)c1snc(N)c1I (relative stereo) [I-1541],2.67[a],,
C#CCNc1nsc(C(=O)N[C@@H](C)C2CCCCC2)c1Cl [I-062],3.56[a],,
COc1ccc(CNc2nsc(C(=O)NCc3cn(C(C)C)nc3C)c2Cl)cc1 [I-1257],2.82[a],,
Cc1ccc(NC(=O)c2cc(N)ns2)cc1Cl [I-920],2.35[a],,
CCn1ncc(CNC(=O)c2snc(NCc3ccc(OC)cc3)c2Cl)c1C(F)F [I-1312],3.09[a],,
COc1ccc(CNc2nsc(C(=O)NCc3cc(C(F)(F)F)cc(C(F)(F)F)c3)c2Cl)cc1 [I-1313],4.46[a],,

SMILES,LogP,LogP [a],LogP [b]
COc1ccc(CNc2nsc(C(=O)N3c4ccccc4CCC3C)c2Cl)cc1 (stereo not shown) [II-100],,4.14,4.09
Nc1nsc(C(=O)N2CCc3ccccc3C2)c1Cl [II-020],,2.02,1.98
Cc1c(N)nsc1C(=O)NCc1cc(F)c(F)cc1F [I-588],1.64[a],,
Cc1nc(CNC(=O)c2snc(N)c2Cl)cs1 [I-1362],1.14[a],,
O=C(O)CCNc1nsc(C(=O)NCC2CCCCC2)c1Cl [I-721],2.42[a],,
CC1OC(C)(C)c2cccc(NC(=O)c3snc(N)c3Cl)c21 (stereo not shown) [I-879],2.28[a],,
Nc1nsc(C(=O)NCc2ccccc2Br)c1Cl [I-1553],1.88[a],,
Nc1nsc(C(=O)NCc2ccc(F)c(F)c2)c1Cl [I-125],1.93[a],,
Nc1nsc(C(=S)NCc2ccccc2F)c1Cl [I-1021],2.73[a],,
COc1ccc(CNc2nsc(C(=O)NC(C)c3ccsc3)c2Cl)cc1 (stereo not shown) [I-1261],3.61[a],,
O=C(NCC1CCCCC1)c1snc(N=S2CCCC2)c1Cl [II-033],,2.15^[a],
COc1ccc(CNc2nsc(C(=O)N3CCCc4ccccc43)c2Cl)cc1 [II-097],,3.84^[a],
CCn1cc(CNC(=O)c2snc(NCc3ccc(OC)cc3)c2Cl)cn1 [I-1205],2.48[a],,
Cc1ccc(S(C)=Nc2nsc(C(=O)NCc3c(F)cc(F)cc3F)c2F)cc1 (stereo not shown) [II-080],,2.63^[a],
CC1(C)CCCCC1N(C(=O)c1snc(N)c1Cl)C1CC1 (stereo not shown) [I-863],3.30[a],,
C[C@H](NC(=S)c1snc(N)c1Cl)C1CCCCC1 [I-418],3.85[a],,
O=C(NCC1CCCCC1)c1snc(N=S2CCCC2)c1F [II-055],,1.72^[a],
COc1c(N)nsc1C(=O)NCC1CCCCO1 (stereo not shown) [I-734],1.31[a],,
CCC(C)C(C)N(C(=O)c1snc(N)c1Cl)C1CC1 (stereo not shown) [I-901],3.00[a],,
COc1ccc(CNc2nsc(C(=O)Nc3ccc(C)c(Cl)c3)c2Cl)cc1 [I-882],4.63[a],,
COc1ccc(CNc2nsc(C(=O)N(C3CCCCC3)C3CC3)c2Cl)cc1 [I-893],4.67[a],,

# Same assay, conditions: HPLC LC-UV, acidic range, 0.1% formic acid in water and acetonitrile as eluent
row,SMILES,chromatographic logP
1,"O=C(O)c1snc(N(Cc2ccccc2)Cc2ccccc2)c1C1CC1 [E-VIII-008, 4-cyclopropyl-3-(dibenzylamino)isothiazole-5-carboxylic acid]",4.11
2,"O=C(NCC1CCCCC1)c1snc(N=C(c2ccccc2)c2ccccc2)c1Cl [II-002, 4-chloro-N-(cyclohexylmethyl)-3-[(diphenylmethylene)amino]isothiazole-5-carboxamide]",5.65
3,"CCOC(=O)c1snc(N(Cc2ccccc2)Cc2ccccc2)c1C(F)F [E-VII-023, ethyl 3-(dibenzylamino)-4-(difluoromethyl)-1,2-thiazole-5-carboxylate]",5.68
